Excerpt: A test tank with a capacity of approximately 1100 liters was fitted with a HAYWARD® sand filter. The filter was approximately 0.09 square meters and contained approximately 18 kg of coarse sand. An identical tank was fitted with a HAYWARD ® cartridge filter, as is typically used with swimming pools. […] Water is then drawn through the filters using a pump. Each unit was fitted with necessary plumbing to permit test samples of reactant to be added upstream of the filter, to simulate adding the reactant to the skimmer in a full-sized pool. In this way, the reactant could be drawn through the plumbing and into or onto the filter. In this test orthophosphate, in the form of Na2HPO4, was used to simulate the increased phosphate level present in the water.
This suspension was added upstream of the filter, thus it was drawn toward and into the filter.

O=S(=O)([O-])[O-].O=S(=O)([O-])[O-].O=S(=O)([O-])[O-].[La+3].[La+3] [La2(SO4)3, lanthanum sulfate]
ratio of PO4 recovered to La added (commercial grade (approximately 99.5% purity), 0.8 g Na2HPO4 added, otherwise as Example 1): 0.35
PO4 removed (reagent grade (99.9% pure), 3.5 g in 50 ml tap water added upstream of filter, 1135 L, approx. 800 ppb phosphate, after 2 hours pumping at approx. 75 L/min): 0.65 g
ratio of PO4 to La observed in the experiment (reagent grade (99.9% pure), 3.5 g, after 2 hours): 0.38
